Series [1] concerns amyotrophic lateral sclerosis (ALS) patients. Put plainly: Clinical studies: treatment of ALS patients by infusion. It counts as in vivo, human. The protocol: The surprising activity of the compounds of formula I and of medicaments containing these ingredients in the treatment of ALS patients can be seen from the following examples of effects which resulted after administration of orotyl-L-histidyl-L-prolinamide in clinical studies. This active ingredient was filled in lyophilized form in 6 mg portions in bottles, closed with rubber stoppers, also containing 12 mg mannitol.
A patient with bulbar palsy caused by ALS was treated three times daily (at 4 hour intervals) on four consecutive days in form of short infusions (i.e. within 30 minutes) with the active ingredient. The total cumulative doses were on the first day 18 mg, on the second day 36 mg, on the third day 54 mg and on the fourth day 72 mg. The single doses for each infusion were dissolved in 100 ml of a sterile isotonic solution of sodium chloride.
Another ALS patient, suffering for eight months from ALS, was treated in the same manner as described above. […] For instance, they became able to lift their arms above horizontal, to walk without a stick, to climb stairs without support, and they became independent in activities of everyday life (such as shaving, washing, cutting with a knife, using a fork, writing, etc.).
Three other ALS patients, who had been ill for five, seven and twelve months, respectively, were each treated on four consecutive days three times daily with 24 mg of the active ingredient, dissolved in 5% aqueous glucose solution, by intravenous infusion, applied within 30 minutes. […] Again the observed side effects were insignificant and could be neglected.

Series [2] has the same test system. Described as above. It counts as in vivo, human. The source holds these as a separate data set.
Where [3] appears, read: Example 3: three ALS patients, 24 mg three times daily, four days, intravenous infusion.

On to `NC(=O)[C@@H]1CCCN1C(=O)[C@H](Cc1c[nH]cn1)NC(=O)c1cc(=O)[nH]c(=O)[nH]1` [orotyl-L-histidyl-L-prolinamide], for which the “improvement in bulbar symptoms” value in series [1] (Example 1: one patient with bulbar palsy caused by ALS, short infusions (30 minutes) three times daily on four consecutive days, daily totals 18, 36, 54, 72 mg) is listed as “remarkable improvements in the bulbar symptoms”. Further, the “persistence of improvement after medication ended” value in series [1] (Example 1: patient with bulbar palsy, four-day infusion treatment) is “remained for several days”. Also, the “side effects of the treatment” value in series [1] (Example 1: short infusions three times daily, four days, daily totals 18, 36, 54, 72 mg) is on record as “insignificant”. Besides, the “persistence of improvement after therapy finished” value in series [1] (Example 2: four days therapy, same regimen as Example 1) is “sustained for some days”. Further, in series [1] (Example 2: one patient suffering for eight months from ALS, same regimen as Example 1), the “improvement in muscle weakness” value is “striking improvement in muscle weakness”. Further, the “improvement in everyday motor abilities” value in series [1] (Example 3: three ALS patients, 24 mg three times daily on four consecutive days, intravenous infusion in 5% glucose within 30 minutes) was “Remarkable improvements were noted in using buttons and zippers and in the ability to walk without assistance”. Also, in series [1] (setting [3]), the clonic reflexes result is “changed to normal”, the observed side effects result is listed as “insignificant” and the “tendency to become fatigued” value was “reduced”. In series [2] (Example 4: one ALS patient with pronounced atrophy of the hand muscles, total 18 mg on one day (infusions of 6 mg at four hour intervals)), the “effect on hand musculature” value is “evident effect on the hand musculature”. Besides, the “persistence of effect after ending of medication” value in series [2] (Example 4: total 18 mg on one day by infusion) is listed as “remained for some time”.

The values are drawn from patent US4788179A, “Method of treating amyotrophic lateral sclerosis with dipeptide derivatives and pharmaceutical compositions for use therein” (Gruenenthal GmbH, priority 1984, dated 1988).
